Experimental data from US7897582B2, “Oligonucleotide compositions and methods for the modulation of the expression of B7 protein” (Isis Pharmaceuticals, Inc., priority 2003, dated 2011).
Strand notation (5' to 3'): a small letter for the sugar, then the base; units joined by * are phosphorothioate-linked, units joined directly phosphodiester-linked; [ ] holds rarer units or linkages, { } end groups; capitals alone tell only the bases. e = 2'-O-(2-methoxyethyl) (MOE); [5mC] = 5-methylcytosine; d = 2'-deoxy (DNA)

Tests used:
hB7-2 mRNA = assay: Ribonuclease protection assay of hB7-2 mRNA in transfected COS-7 cells; type: cell-based, human; parameters: % Control RNA Expression: concentration or dose not given beside the values; details: for % Control RNA Expression: hB7-2 mRNA, Table 5
Protocol: For ribonuclease protection assays, cells were harvested 18 hours after completion of oligonucleotide treatment using a Totally RNA™ kit (Ambion, Austin, Tex.). The probes for the assay were generated from plasmids pcB7-2 (linearized by digestion with Bgl II) and pTRI-b-actin (Ambion Inc., Austin, Tex.). In vitro transcription of the linearized plasmid from the SP6 promoter was performed in the presence of α-^32P-UTP (800 Ci/mmole) yielding an antisense RNA complementary to the 3′ end of B7-2 (position 1044-1391). The probe was gel-purified after treatment with DNase I to remove DNA template. Ribonuclease protection assays were carried out using an RPA II™ kit (Ambion) according to the manufacturer's directions. Total RNA (5 μg) was hybridized overnight, at 42° C., with 10^5 cpm of the B7-2 probe or a control beta-actin probe. The hybridization reaction was then treated, at 37° C. for 30 minutes, with 0.4 units of RNase A and 2 units of RNase T1. Protected RNA was precipitated, resuspended in 10 μL of gel loading buffer and electrophoresed on a 6% acrylamide gel with 50% w/v urea at 20 W. The gel was then exposed and the lanes quantitated using a PhosphorImager (Molecular Dynamics, Sunnyvale, Calif.) essentially according to the manufacturer's instructions.
The oligonucleotides were screened as described in Example 4 except that the concentration of oligonucleotide was varied as shown in Table 13. Mismatch control oligonucleotides were included.

human B7-2 = assay: Cell surface expression of B7-2 in transfected COS-7 cells by flow cytometry; type: cell-based; parameters: % Control Protein: concentration or dose not given beside the values; details: hB7-2 protein, flow cytometry; Table 5
Protocol: A T-175 flask was seeded at 75% confluency with COS-7 cells (ATCC accession No. CRL 1651). The plasmid pcB7-1 was introduced into cells by standard calcium phosphate transfection. Following a 4 hour transfection, the cells were trypsinized and seeded in 12-well dishes at 80% confluency. The cells were allowed to adhere to the plastic for 1 hour and were then washed with phosphate-buffered saline (PBS). OptiMEM™ (GIBCO-BRL, Gaithersburg, Md.) medium was added along with 15 μg/mL of Lipofectin™ (GIBCO-BRL, Gaithersburg, Md.) and oligonucleotide at the indicated concentrations. After four additional hours, the cells were washed with phosphate buffered saline (PBS) and incubated with fresh oligonucleotide at the same concentration in DMEM (Dulbecco et al., Virol., 1959, 8, 396; Smith et al., Virol., 1960, 12, 185) with 10% fetal calf sera (FCS).
In order to monitor the effects of oligonucleotides on cell surface expression of B7-1, treated COS-7 cells were harvested by brief trypsinization 24-48 hours after oligonucleotide treatment. The cells were washed with PBS, then resuspended in 100 μL of staining buffer (PBS, 0.2% BSA, 0.1% azide) with 5 μL conjugated anti-B7-1-antibody (i.e., anti-hCD80-FITC, Ancell, Bayport, Minn.; FITC: fluorescein isothiocyanate). The cells were stained for 30 minutes at 4° C., washed with PBS, resuspended in 300 μL containing 0.5% paraformaldehyde. Cells were harvested and the fluorescence profiles were determined using a flow cytometer.
In an initial screen, the ability of hB7-2 oligonucleotides to inhibit B7-2 expression was evaluated by measuring the cell surface expression of B7-2 in transfected COS-7 cells by flow cytometry. The methods used were similar to those given in Example 2, with the exceptions that (1) COS-7 cells were transfected with the plasmids pbcB7-2 or BBG-58, a human ICAM-1 (CD54) expression vector (R&D Systems, Minneapolis, Minn.) introduced into cells by standard calcium phosphate transfection, (2) the oligonucleotides used were those described in Table 2, and (3) a conjugated anti-B7-2 antibody (i.e., anti-hCD86-FITC or anti-CD86-PE, PharMingen, San Diego, Calif.; PE: phycoerythrin) was used during flow cytometry.
B7 antisense oligonucleotides were tested for their effect on cell surface expression of both B7-1 and B7-2. Cell surface expression was measured as described in Example 1. Experiments were done for both human B7 and mouse B7.
The oligonucleotides were screened as described in Example 2 except that the concentration of oligonucleotide was varied as shown in Table 19.

Human B7-2 mRNA = Human B7-2 mRNA expression in electroporated THP-1 cells induced with LPS and dibutyryl cAMP; type: cell-based; details: THP-1 cells electroporated at 10 micromolar oligonucleotide, LPS and dibutyryl cAMP (500 μM) 16 hours
Description: The human promonocytic leukaemia cell line, THP-1 (American Type Culture Collection, Manassas, Va.) was maintained in RPMI 1640 growth media supplemented with 10% fetal calf serum (FCS; Life Technologies, Rockville, Md.). A total of 1×10^7 cells were electroporated at an oligonucleotide concentration of 10 micromolar in 2 mm cuvettes, using an Electrocell Manipulator 600 instrument (Biotechnologies and Experimental Research, Inc.) employing 200 V, 1000 μF. Electroporated cells were then transferred to petri dishes and allowed to recover for 16 hrs Cells were then induced with LPS and dibutyryl cAMP (500 μM) for 16 hours. RNA was isolated and processed as described in previous examples.

| Substance | % Control RNA Expression (hB7-2 mRNA) | % Control Protein (human B7-2) | % mRNA EXPRESSION (Human B7-2 mRNA) | % mRNA INHIBITION (Human B7-2 mRNA) | other results |
| --- | --- | --- | --- | --- | --- |
| 9133 (antisense dT*dT*dC*dC*dA*dG*dG*dT*dC*dA*dT*dG*dA*dG*dC*dC*dA*dT*dT*dA) [compound 9133] | 46.0% | 70.2% | – | – | – |
| 9134 (antisense dC*dA*dT*dA*dA*dG*dG*dT*dG*dT*dG*dC*dT*dC*dT*dG*dA*dA*dG*dT*dG) [compound 9134] | 94.5% | 88.8% | – | – | – |
| 9135 (antisense dT*dT*dA*dC*dT*dC*dA*dT*dG*dG*dT*dA*dA*dT*dG*dT*dC*dT*dT*dT) [compound 9135] | 83.4% | 98.2% | – | – | – |
| 9136 (antisense dA*dT*dT*dA*dA*dA*dA*dA*dC*dA*dT*dG*dT*dA*dT*dC*dA*dC*dT*dT) [compound 9136] | 103.1% | 97.1% | – | – | – |
| 9137 (antisense dG*dG*dA*dA*dC*dA*dC*dA*dG*dA*dA*dG*dC*dA*dA*dG*dG*dT*dG*dG*dT) [compound 9137] | 78.1% | 80.5% | – | – | – |
| 9138 (antisense dC*dC*dG*dT*dA*dC*dC*dT*dC*dC*dT*dA*dA*dG*dG*dC*dT*dC*dC*dT) [compound 9138] | 65.9% | 86.4% | – | – | – |
| 9139 (antisense dC*dC*dC*dA*dT*dA*dG*dT*dG*dC*dT*dG*dT*dC*dA*dC*dA*dA*dA*dT) [compound 9139] | 32.6% | 47.9% | – | – | – |
| 10367 (antisense dG*dC*dA*dC*dA*dG*dC*dA*dG*dC*dA*dT*dT*dC*dC*dC*dA*dA*dG*dG) [compound 10367] | 52.5% | 71.3% | – | – | – |
| 10368 (antisense dT*dT*dG*dC*dA*dA*dA*dT*dT*dG*dG*dC*dA*dT*dG*dG*dC*dA*dG*dG) [compound 10368] | 84.5% | 81.0% | – | – | – |
| 10369 (antisense dT*dG*dG*dT*dA*dT*dG*dG*dG*dC*dT*dT*dT*dA*dC*dT*dC*dT*dT*dT) [compound 10369] | 81.5% | 71.3% | – | – | – |
| 10370 (antisense dA*dA*dA*dA*dG*dG*dT*dT*dG*dC*dC*dC*dA*dG*dG*dA*dA*dC*dG*dG) [compound 10370] | 83.2% | 84.3% | – | – | – |
| 10371 (antisense dG*dG*dG*dA*dG*dT*dC*dC*dT*dG*dG*dA*dG*dC*dC*dC*dC*dC*dT*dT) [compound 10371] | 92.9% | 97.3% | – | – | – |
| 10372 (antisense dC*dC*dA*dT*dT*dA*dA*dG*dC*dT*dG*dG*dG*dC*dT*dT*dG*dG*dC*dC) [compound 10372] | 82.5% | 101.7% | – | – | – |
| 10373 (antisense dT*dG*dC*dG*dA*dG*dC*dT*dC*dC*dC*dC*dG*dT*dA*dC*dC*dT*dC*dC) [compound 10373] | 32.7% | 43.5% | – | – | % mRNA EXPRESSION (hB7-2 mRNA; human B7-2 mRNA, Table 12): 24%; % mRNA INHIBITION (hB7-2 mRNA; human B7-2 mRNA, Table 12): 76% |
| 113131 (antisense e[5mC]*eG*eT*eG*eT*dG*dT*d[5mC]*dT*dG*dT*dG*d[5mC]*dT*dA*eG*eT*e[5mC]*e[5mC]*e[5mC]) [compound 113131] | – | – | 13% | 87% | – |
| 113132 (antisense eG*e[5mC]*eT*eG*e[5mC]*dT*dT*d[5mC]*dT*dG*d[5mC]*dT*dG*dT*dG*eA*e[5mC]*e[5mC]*eT*eA) [compound 113132] | – | – | 17% | 83% | – |
| 113133 (antisense eT*eA*eT*eT*eT*dG*d[5mC]*dG*dA*dG*d[5mC]*dT*d[5mC]*d[5mC]*d[5mC]*e[5mC]*eG*eT*eA*e[5mC]) [compound 113133] | – | – | 214% | – | – |
| 113134 (antisense eG*e[5mC]*eA*eT*eA*dA*dG*d[5mC]*dA*d[5mC]*dA*dG*d[5mC]*dA*dG*e[5mC]*eA*eT*eT*e[5mC]) [compound 113134] | – | – | 27% | 73% | – |
| 113135 (antisense eT*e[5mC]*e[5mC]*eA*eA*dA*dA*dA*dG*dA*dG*dA*d[5mC]*d[5mC]*dA*eG*eA*eT*eG*e[5mC]) [compound 113135] | – | – | 66% | 34% | – |
| 113136 (antisense eA*eA*eA*eT*eG*d[5mC]*d[5mC]*dT*dG*dT*d[5mC]*d[5mC]*dA*d[5mC]*dT*eG*eT*eA*eG*e[5mC]) [compound 113136] | – | – | 81% | 19% | – |
| 113137 (antisense e[5mC]*eT*eT*e[5mC]*eA*dG*dA*dG*dG*dA*dG*d[5mC]*dA*dG*d[5mC]*eA*e[5mC]*e[5mC]*eA*eG) [compound 113137] | – | – | 57% | 43% | – |
| 113138 (antisense eG*eA*eA*eT*e[5mC]*dT*dT*d[5mC]*dA*dG*dA*dG*dG*dA*dG*e[5mC]*eA*eG*e[5mC]*eA) [compound 113138] | – | – | 12% | 88% | – |
| 113140 (antisense eG*e[5mC]*eT*eT*eT*dG*dG*dT*dT*dT*dT*dG*dA*dG*dA*eG*eT*eT*eT*eG) [compound 113140] | – | – | 214% | – | – |
| 113141 (antisense eA*eG*eG*e[5mC]*eT*dT*dT*dG*dG*dT*dT*dT*dT*dG*dA*eG*eA*eG*eT*eT) [compound 113141] | – | – | 126% | – | – |
| 113142 (antisense eG*e[5mC]*eT*e[5mC]*eA*d[5mC]*dT*d[5mC]*dA*dG*dG*d[5mC]*dT*dT*dT*eG*eG*eT*eT*eT) [compound 113142] | – | – | 35% | 65% | – |
| 113143 (antisense eG*eG*eT*e[5mC]*e[5mC]*dT*dG*d[5mC]*d[5mC]*dA*dA*dA*dA*dT*dA*e[5mC]*eT*eA*e[5mC]*eT) [compound 113143] | – | – | 118% | – | – |
| 113144 (antisense eA*eG*e[5mC]*e[5mC]*e[5mC]*dT*dT*dG*dT*d[5mC]*d[5mC]*dT*dT*dG*dA*eT*e[5mC]*eT*eG*eA) [compound 113144] | – | – | 41% | 59% | – |
